Data on three substances can be found in US20100138957A1 (priority 2007, published 2010).

Series [1] has as its system Pseudomonas aeruginosa. Particulars: cited from earlier work.
For series [2], the system named is Xylella fastidiosa. The following applies: in vivo.
The subject of series [3] is pathogenic Vibrio bacteria. The following applies: intraperitoneal injection, juvenile coho salmon; cited from earlier work.
The subject of series [4] is 18 bacterial and fungal microorganisms. The following applies: cited from earlier work.
Series [5] concerns human intestinal epithelial cells. Particulars: cited from earlier work.

KWKLFKKIGIGAVLKV TTGLPALKTLK [CEMA]: the MIC in series [1] is 2.8 μg per ml.

“MAKWKLFKKIGIGFKKAAHVGKAALTK [B-passerin]”: in series [2], the “time plants survived stringent disease challenges with no or lessened visible symptoms” value was “up to 12 months”, the “time surviving plants remained symptomless” value is “over 8 months” and the “transgenic plants that survived the high stringency greenhouse test” value is on record as 90%.

In the case of “Pleurocidin: 25-residue cationic antimicrobial peptide from skin secretions of winter flounder (GWGSFFKKAAHVGKHVGKAALTHYL; Pleurocidin; UniProt P81941 23-47, looked up)”, the “efficacy against lethal vibriosis compared to CEME” value in series [3] is recorded as “more effective”. The “microorganisms against which the peptide was effective” value in series [4] was 17 of the 18. Besides, in series [5], the cytotoxic effects entry is reported as “no cytotoxic effects”.
